What all share (type): functional
Test [1] in a line: Antiproliferative activity against human IMR32 cells assessed as growth inhibition after 48 hrs by SRB assay. Particulars: IMR-32, 48 h. A general note: The SRB assay estimates cell density from bound dye.
Test [2] in a line: Antiproliferative activity against human MiaPaCa cells assessed as growth inhibition after 48 hrs by SRB assay. Particulars: MIA PaCa-2, 48 h.
Test [3] has as its system HeLa. The experiment in a line: Antiproliferative activity against human HeLa cells assessed as growth inhibition after 48 hrs by SRB assay.
Test [4] deals with MDA-MB-231. The experiment in a line: Antiproliferative activity against human MDA-MB-231 cells assessed as growth inhibition after 48 hrs by SRB assay. Particulars: MDA-MB-231, 48 h.

SMILES strings stand for the structures. Bounds are passed on as bounds.

For `COc1cc(OC)c(-c2nc3ccccc3c(=O)n2C/C=C/c2ccc(-c3cnc4ccccc4n3)cc2)c(OC)c1`, the GI50 is 770 nM in test [1] (read-out: GI50); 771 nM in test [1] (read-out: pGI50 (converted)); 2200 nM in test [2] (read-out: GI50); 2200 nM in test [2] (read-out: pGI50 (converted)); 2500 nM in test [3] (read-out: GI50); 2500 nM in test [3] (read-out: pGI50 (converted)). The GI50 in test [4] (read-out: GI50) is less than 10 nM.
With `COc1ccc(-c2nc3ccccc3c(=O)n2C/C=C/c2ccc(-c3cnc4ccccc4n3)cc2)c(F)c1`, the GI50 in test [1] (read-out: GI50) was 1200 nM; in test [1] (read-out: pGI50 (converted)) it was 1200 nM; in test [2] (read-out: GI50) it was 28600 nM; in test [2] (read-out: pGI50 (converted)), 28600 nM; in test [3] (read-out: GI50) it was 900 nM; in test [3] (read-out: pGI50 (converted)), 902 nM. For the same molecule, the GI50 in test [4] (read-out: GI50) is less than 10 nM.
Turning to `COc1ccc(-c2nc3ccccc3c(=O)n2C/C=C/c2ccc(-c3cnc4ccccc4n3)cc2)c(OC)c1`, the GI50 was 6300 nM in test [1] (read-out: GI50); 6310 nM in test [1] (read-out: pGI50 (converted)); 13600 nM in test [2] (read-out: GI50); 13600 nM in test [2] (read-out: pGI50 (converted)); 31600 nM in test [3] (read-out: GI50); 31600 nM in test [3] (read-out: pGI50 (converted)). In addition, in test [4] (read-out: GI50), the GI50 is less than 10 nM.
As for `O=c1c2ccccc2nc(-c2ccc(C(F)(F)F)cc2)n1C/C=C/c1ccc(-c2cnc3ccccc3n2)cc1`, the GI50 is 5300 nM in test [1] (read-out: GI50); 5310 nM in test [1] (read-out: pGI50 (converted)); 10000 nM in test [2] (read-out: GI50); 10000 nM in test [2] (read-out: pGI50 (converted)); 17700 nM in test [3] (read-out: GI50); 17700 nM in test [3] (read-out: pGI50 (converted)). Also, the GI50 in test [4] (read-out: GI50) and in test [4] (read-out: pGI50 (converted)) was 1800 nM throughout.
In the case of `COc1cccc(-c2nc3ccccc3c(=O)n2C/C=C/c2ccc(-c3cnc4ccccc4n3)cc2)c1`, the GI50 in test [1] (read-out: GI50) is 320 nM; in test [1] (read-out: pGI50 (converted)) it was 321 nM; in test [2] (read-out: GI50), 2000 nM; in test [2] (read-out: pGI50 (converted)) it was 2000 nM; in test [3] (read-out: GI50), 120 nM; in test [3] (read-out: pGI50 (converted)), 120 nM. Besides, the GI50 in test [4] (read-out: GI50) and in test [4] (read-out: pGI50 (converted)) was 1250 nM each time.
On to `Cc1ccc(-c2nc3ccccc3c(=O)n2C/C=C/c2ccc(-c3cnc4ccccc4n3)cc2)cc1`, for which the GI50 was 2200 nM in test [1] (read-out: GI50); 2200 nM in test [1] (read-out: pGI50 (converted)); 11400 nM in test [2] (read-out: GI50); 11400 nM in test [2] (read-out: pGI50 (converted)); 9200 nM in test [3] (read-out: GI50); 9200 nM in test [3] (read-out: pGI50 (converted)). Also, the GI50 in test [4] (read-out: GI50) and in test [4] (read-out: pGI50 (converted)) was 1240 nM throughout.
As to `O=c1c2ccccc2nc(-c2ccccc2)n1C/C=C/c1ccc(-c2cnc3ccccc3n2)cc1`, the GI50 was 1010 nM in test [1] (read-out: GI50); 1010 nM in test [1] (read-out: pGI50 (converted)); 2800 nM in test [2] (read-out: GI50); 2810 nM in test [2] (read-out: pGI50 (converted)); 5100 nM in test [3] (read-out: GI50); 5110 nM in test [3] (read-out: pGI50 (converted)). Further, the GI50 in test [4] (read-out: GI50) is 6400 nM; in test [4] (read-out: pGI50 (converted)), 6410 nM.
`O=c1c2ccccc2nc(-c2ccc([N+](=O)[O-])cc2)n1C/C=C/c1ccc(-c2cnc3ccccc3n2)cc1`: the GI50 in test [1] (read-out: GI50) is less than 10 nM; in test [2] (read-out: GI50), 6100 nM; in test [2] (read-out: pGI50 (converted)), 6110 nM; in test [3] (read-out: GI50), 900 nM; in test [3] (read-out: pGI50 (converted)), 902 nM; in test [4] (read-out: GI50), 140 nM. The GI50 in test [4] (read-out: pGI50 (converted)) was 140 nM.
Take `Cc1nc2ccccc2c(=O)n1CCCc1ccc(-c2cnc3ccccc3n2)cc1`: the GI50 in test [1] (read-out: GI50) was 220 nM; in test [1] (read-out: pGI50 (converted)), 220 nM; in test [2] (read-out: GI50) it was 1200 nM; in test [2] (read-out: pGI50 (converted)), 1200 nM; in test [3] (read-out: GI50), 32 nM; in test [3] (read-out: pGI50 (converted)), 32.1 nM. The values for the GI50 in test [4] (read-out: GI50) and in test [4] (read-out: pGI50 (converted)) were 620 nM and 621 nM, respectively.
Regarding `O=c1c2ccccc2nc(-c2ccc(F)cc2)n1C/C=C/c1ccc(-c2cnc3ccccc3n2)cc1`, the GI50 is 65000 nM in test [1] (read-out: GI50); 65000 nM in test [1] (read-out: pGI50 (converted)); less than 10 nM in test [2] (read-out: GI50); 16100 nM in test [3] (read-out: GI50); 16100 nM in test [3] (read-out: pGI50 (converted)); 1700 nM in test [4] (read-out: GI50). Further, the GI50 in test [4] (read-out: pGI50 (converted)) was 1700 nM.
Turning to `COc1ccc(-c2nc3ccccc3c(=O)n2C/C=C/c2ccc(-c3cnc4ccccc4n3)cc2)cc1`, the GI50 in test [1] (read-out: GI50) was 2800 nM; in test [1] (read-out: pGI50 (converted)), 2810 nM; in test [2] (read-out: GI50) it was 2100 nM; in test [2] (read-out: pGI50 (converted)), 2100 nM; in test [3] (read-out: GI50) it was 1200 nM; in test [3] (read-out: pGI50 (converted)) it was 1200 nM. For the same molecule, the GI50 in test [4] (read-out: GI50) was 640 nM; in test [4] (read-out: pGI50 (converted)), 641 nM.
Take `O=c1c2ccccc2nc(-c2ccc(Cl)cc2)n1C/C=C/c1ccc(-c2cnc3ccccc3n2)cc1`: the GI50 in test [1] (read-out: GI50) was less than 10 nM; in test [2] (read-out: GI50), 6400 nM; in test [2] (read-out: pGI50 (converted)), 6410 nM; in test [3] (read-out: GI50), 69500 nM; in test [3] (read-out: pGI50 (converted)), 69500 nM; in test [4] (read-out: GI50) it was 570 nM. Moreover, in test [4] (read-out: pGI50 (converted)), the GI50 was 570 nM.
As to `COc1ccc(OC)c(-c2nc3ccccc3c(=O)n2C/C=C/c2ccc(-c3cnc4ccccc4n3)cc2)c1`, the GI50 in test [1] (read-out: GI50) is 280 nM; in test [1] (read-out: pGI50 (converted)), 282 nM; in test [2] (read-out: GI50) it was 1800 nM; in test [2] (read-out: pGI50 (converted)), 1800 nM; in test [3] (read-out: GI50), 38 nM; in test [3] (read-out: pGI50 (converted)) it was 38 nM. The GI50 in test [4] (read-out: GI50) and in test [4] (read-out: pGI50 (converted)) was 1360 nM each time.
For `O=c1c2ccccc2nc(-c2ccc(Cl)cc2Cl)n1C/C=C/c1ccc(-c2cnc3ccccc3n2)cc1`, the GI50 in test [1] (read-out: GI50) was 2600 nM; in test [1] (read-out: pGI50 (converted)) it was 2600 nM; in test [2] (read-out: GI50), 4400 nM; in test [2] (read-out: pGI50 (converted)), 4410 nM; in test [3] (read-out: GI50) it was greater than 100000 nM; in test [4] (read-out: GI50), 400 nM. In test [4] (read-out: pGI50 (converted)), the GI50 is 401 nM.
In the case of `CCOc1ccc(-c2nc3ccccc3c(=O)n2C/C=C/c2ccc(-c3cnc4ccccc4n3)cc2)cc1`, the GI50 is 470 nM in test [1] (read-out: GI50); 471 nM in test [1] (read-out: pGI50 (converted)); 2200 nM in test [2] (read-out: GI50); 2200 nM in test [2] (read-out: pGI50 (converted)); greater than 100000 nM in test [3] (read-out: GI50); greater than 100000 nM in test [4] (read-out: GI50).
With `COc1cccc2c1C(=O)c1c(O)c3c(c(O)c1C2=O)C[C@@](O)(C(=O)CO)C[C@@H]3O[C@H]1C[C@H](N)[C@H](O)[C@H](C)O1` [DOXORUBICIN], the GI50 in test [1] (read-out: GI50) was 23 nM; in test [1] (read-out: pGI50 (converted)) it was 23 nM; in test [2] (read-out: GI50), 97 nM; in test [2] (read-out: pGI50 (converted)) it was 97 nM; in test [3] (read-out: GI50), 73 nM; in test [3] (read-out: pGI50 (converted)), 73.1 nM. Further, the GI50 is 85 nM in test [4] (read-out: GI50) and 85.1 nM in test [4] (read-out: pGI50 (converted)).
`CC(=O)O[C@H]1C(=O)[C@@]2(C)[C@H]([C@H](OC(=O)c3ccccc3)[C@]3(O)C[C@H](OC(=O)[C@H](O)[C@@H](NC(=O)c4ccccc4)c4ccccc4)C(C)=C1C3(C)C)[C@]1(OC(C)=O)CO[C@@H]1C[C@@H]2O` [PACLITAXEL]: the GI50 in test [1] (read-out: GI50) was 75 nM; in test [1] (read-out: pGI50 (converted)), 75.2 nM; in test [2] (read-out: GI50), 56 nM; in test [2] (read-out: pGI50 (converted)), 56.1 nM; in test [3] (read-out: GI50) it was 25 nM; in test [3] (read-out: pGI50 (converted)) it was 25 nM. Also, the figures for the GI50 in test [4] (read-out: GI50) and in test [4] (read-out: pGI50 (converted)) were 91 nM and 91.2 nM, respectively.

For the origin of these results see ChEMBL document CHEMBL3808390, “Quinazolinones-Phenylquinoxaline hybrids with unsaturation/saturation linkers as novel anti-proliferative agents” (2016).
